# Test system: wild type cells
# Assay: Reduction of cholesterol levels in wild type cells
# Type: cell-based
# Conditions: with increasing concentration, FIG. 1A
# Experimental: The half maximal effective concentration (EC-50) for delta-tocopherol and five analogues was measured in wild type and NPC 3123 cells. […] Further, in NPC cells (FIG. 1B), the cholesterol level drop was substantial relative to the control (no delta-tocopherol).
structure (smiles),measurement,value
Cc1cc(O)cc2c1O[C@](C)(CCC[C@H](C)CCC[C@H](C)CCCC(C)C)CC2 [delta-tocopherol],cholesterol levels in wild type cells,cholesterol levels dropped
